{"source": "patent US10323022B2", "about": "“Pyrrolidinyl urea, pyrrolidinyl thiourea and pyrrolidinyl guanidine compounds as TrkA kinase inhibitors” (Array BioPharma Inc., priority 2011, dated 2019)", "note": "pIC50: −log10 of the molar value. Structures can show the parent of a compound that is named as a salt."}
{"target": "TrkA (Homo sapiens (Human), UniProt P04629)", "sequence (P04629 33-796)": "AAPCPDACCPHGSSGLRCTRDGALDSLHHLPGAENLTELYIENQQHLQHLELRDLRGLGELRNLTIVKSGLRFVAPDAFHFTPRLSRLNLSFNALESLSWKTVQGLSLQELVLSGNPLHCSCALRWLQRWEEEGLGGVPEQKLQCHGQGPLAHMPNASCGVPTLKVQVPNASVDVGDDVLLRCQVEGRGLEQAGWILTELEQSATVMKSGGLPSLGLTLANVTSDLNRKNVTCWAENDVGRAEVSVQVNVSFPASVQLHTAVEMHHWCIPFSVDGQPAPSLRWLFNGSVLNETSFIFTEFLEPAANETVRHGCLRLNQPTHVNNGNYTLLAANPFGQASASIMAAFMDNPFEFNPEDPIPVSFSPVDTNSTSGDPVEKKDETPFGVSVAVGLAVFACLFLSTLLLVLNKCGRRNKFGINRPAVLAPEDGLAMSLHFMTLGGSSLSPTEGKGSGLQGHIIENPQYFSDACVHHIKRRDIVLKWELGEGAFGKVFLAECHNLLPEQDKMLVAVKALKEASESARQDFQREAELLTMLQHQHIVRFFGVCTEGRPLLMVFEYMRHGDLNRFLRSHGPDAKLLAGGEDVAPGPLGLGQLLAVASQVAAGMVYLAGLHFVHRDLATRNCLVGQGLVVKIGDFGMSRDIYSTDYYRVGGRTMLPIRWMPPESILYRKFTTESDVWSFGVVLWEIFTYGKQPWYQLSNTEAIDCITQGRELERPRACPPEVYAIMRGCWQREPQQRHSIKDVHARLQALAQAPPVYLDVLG", "test": "TrkA Omnia Assay", "type": "biochemical", "settings": "averaged IC50; 20 nM enzyme, 500 μM ATP, 10 μM peptide substrate", "procedure,_shortened": "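Recombinant TrkA (20 nM) preincubated 10 min at ambient temperature with compound, then Omnia Tyr Peptide #4 (10 μM) and ATP (500 μM) added in 25 mM MOPS pH 7.5, 5 mM MgCl2, 0.005% Triton X-100. Fluorescence (ex 360/em 485 nm) followed continuously for 70 min; IC50 from initial rates by 4- or 5-parameter logistic fit.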"}
{"smiles": "COCCN1C[C@@H](NC(=O)Nc2c(C)c(OC[C@H](O)COC)nn2-c2ccccc2)[C@H](c2ccc(F)c(F)c2)C1", "note": "[Example 563, 1-((3S,4R)-4-(3,4-difluorophenyl)-1-(2-methoxyethyl)pyrrolidin-3-yl)-3-(3-((R)-2-hydroxy-3-methoxypropoxy)-4-methyl-1-phenyl-1H-pyrazol-5-yl)urea]", "pIC50": "> 7.00"}
{"smiles": "COCCN1C[C@@H](NC(=O)Nc2c(C)c(OC[C@@H](O)COC)nn2-c2ccccc2)[C@H](c2cc(F)c(F)c(F)c2)C1", "note": "[Example 564, 1-(3-((S)-2-hydroxy-3-methoxypropoxy)-4-methyl-1-phenyl-1H-pyrazol-5-yl)-3-((3S,4R)-1-(2-methoxyethyl)-4-(3,4,5-trifluorophenyl)pyrrolidin-3-yl)urea]", "pIC50": "> 7.00"}
{"smiles": "COCCN1C[C@@H](NC(=O)Nc2c(C)c(OC[C@H](O)COC)nn2-c2ccccc2)[C@H](c2cc(F)c(F)c(F)c2)C1", "note": "[Example 565, 1-(3-((R)-2-hydroxy-3-methoxypropoxy)-4-methyl-1-phenyl-1H-pyrazol-5-yl)-3-((3S,4R)-1-(2-methoxyethyl)-4-(3,4,5-trifluorophenyl)pyrrolidin-3-yl)urea]", "pIC50": "> 7.00"}
{"smiles": "COCCN1C[C@@H](NC(=O)Nc2c(Br)c(-c3cnn(C)c3)nn2C)[C@H](c2ccc(F)c(F)c2)C1", "note": "[Example 566, 1-(4-bromo-1,1′-dimethyl-1H, 1′H-[3,4′-bipyrazol]-5-yl)-3-((3S,4R)-4-(3,4-difluorophenyl)-1-(2-methoxyethyl)pyrrolidin-3-yl)urea]", "pIC50": "6.00 to 7.00"}
{"smiles": "COCCN1C[C@@H](NC(=O)Nc2c(Cl)c(-c3cnn(C)c3)nn2C)[C@H](c2ccc(F)c(F)c2)C1", "note": "[Example 567, 1-(4-chloro-1,1′-dimethyl-1H, 1′H-[3,4′-bipyrazol]-5-yl)-3-((3S,4R)-4-(3,4-difluorophenyl)-1-(2-methoxyethyl)pyrrolidin-3-yl)urea]", "pIC50": "6.00 to 7.00"}
{"smiles": "COCCN1C[C@@H](NC(=O)Nc2c(Cl)c(C3CCOCC3)nn2-c2ccccc2)[C@H](c2ccc(F)c(F)c2)C1", "note": "[Example 568, 1-(4-chloro-1-phenyl-3-(tetrahydro-2H-pyran-4-yl)-1H-pyrazol-5-yl)-3-((3S,4R)-4-(3,4-difluorophenyl)-1-(2-methoxyethyl)pyrrolidin-3-yl)urea]", "pIC50": "> 7.00"}
{"smiles": "COCCN1C[C@@H](NC(=O)Nc2c(Cl)c(C3CCN(C(=O)OC(C)(C)C)CC3)nn2-c2ccccc2)[C@H](c2ccc(F)c(F)c2)C1", "note": "[Example 569, Tert-butyl 4-(4-chloro-5-(3-((3S,4R)-4-(3,4-difluorophenyl)-1-(2-methoxyethyl)pyrrolidin-3-yl)ureido)-1-phenyl-1H-pyrazol-3-yl)piperidine-1-carboxylate]", "pIC50": "> 7.00"}
{"smiles": "COCCN1C[C@@H](NC(=O)Nc2c(Cl)c(C3CCOCC3)nn2-c2ccccc2)[C@H](c2ccc(F)cc2)C1", "note": "[Example 570, 1-(4-chloro-1-phenyl-3-(tetrahydro-2H-pyran-4-yl)-1H-pyrazol-5-yl)-3-((3S,4R)-4-(4-fluorophenyl)-1-(2-methoxyethyl)pyrrolidin-3-yl)urea]", "pIC50": "> 7.00"}
{"smiles": "COCCN1C[C@@H](NC(=O)Nc2c(Cl)c(-c3c(C)noc3C)nn2-c2ccccc2)[C@H](c2ccc(F)c(F)c2)C1", "note": "[Example 571, 1-(4-chloro-3-(3,5-dimethylisoxazol-4-yl)-1-phenyl-1H-pyrazol-5-yl)-3-((3S,4R)-4-(3,4-difluorophenyl)-1-(2-methoxyethyl)pyrrolidin-3-yl)urea]", "pIC50": "> 7.00"}
{"smiles": "COCCN1C[C@@H](NC(=O)Nc2c(Cl)c([C@H]3CCCN3C(=O)OC(C)(C)C)nn2-c2ccccc2)[C@H](c2ccc(F)c(F)c2)C1", "note": "[Example 572, (R)-tert-butyl 2-(4-chloro-5-(3-((3S,4R)-4-(3,4-difluorophenyl)-1-(2-methoxyethyl)pyrrolidin-3-yl)ureido)-1-phenyl-1H-pyrazol-3-yl)pyrrolidine-1-carboxylate]", "pIC50": "6.00 to 7.00"}
{"smiles": "COCCN1C[C@@H](NC(=O)Nc2c(Cl)c([C@@H]3CCCN3C(=O)OC(C)(C)C)nn2-c2ccccc2)[C@H](c2ccc(F)c(F)c2)C1", "note": "[Example 573, (S)-tert-butyl 2-(4-chloro-5-(3-((3S,4R)-4-(3,4-difluorophenyl)-1-(2-methoxyethyl)pyrrolidin-3-yl)ureido)-1-phenyl-1H-pyrazol-3-yl)pyrrolidine-1-carboxylate]", "pIC50": "6.00 to 7.00"}
{"smiles": "COCCN1C[C@@H](NC(=O)Nc2c(Br)c(C3CCOCC3)nn2-c2ccccc2)[C@H](c2ccc(F)c(F)c2)C1", "note": "[Example 574, 1-(4-bromo-1-phenyl-3-(tetrahydro-2H-pyran-4-yl)-1H-pyrazol-5-yl)-3-((3S,4R)-4-(3,4-difluorophenyl)-1-(2-methoxyethyl)pyrrolidin-3-yl)urea]", "pIC50": "> 7.00"}
{"smiles": "COCCN1C[C@@H](NC(=O)Nc2c(Br)c(C3CCN(C(=O)OC(C)(C)C)CC3)nn2-c2ccccc2)[C@H](c2ccc(F)c(F)c2)C1", "note": "[Example 575, Tert-butyl 4-(4-bromo-5-(3-((3S,4R)-4-(3,4-difluorophenyl)-1-(2-methoxyethyl)pyrrolidin-3-yl)ureido)-1-phenyl-1H-pyrazol-3-yl)piperidine-1-carboxylate]", "pIC50": "> 7.00"}
{"smiles": "COCCN1C[C@@H](NC(=O)Nc2c(Br)c(C3CCOCC3)nn2-c2ccccc2)[C@H](c2ccc(F)cc2)C1", "note": "[Example 576, 1-(4-bromo-1-phenyl-3-(tetrahydro-2H-pyran-4-yl)-1H-pyrazol-5-yl)-3-((3S,4R)-4-(4-fluorophenyl)-1-(2-methoxyethyl)pyrrolidin-3-yl)urea]", "pIC50": "> 7.00"}
{"smiles": "COCCN1C[C@@H](NC(=O)Nc2c(Br)c(-c3c(C)noc3C)nn2-c2ccccc2)[C@H](c2ccc(F)c(F)c2)C1", "note": "[Example 577, 1-(4-bromo-3-(3,5-dimethylisoxazol-4-yl)-1-phenyl-1H-pyrazol-5-yl)-3-((3S,4R)-4-(3,4-difluorophenyl)-1-(2-methoxyethyl)pyrrolidin-3-yl)urea]", "pIC50": "> 7.00"}
{"smiles": "COCCN1C[C@@H](NC(=O)Nc2c(Br)c([C@H]3CCCN3C(=O)OC(C)(C)C)nn2-c2ccccc2)[C@H](c2ccc(F)c(F)c2)C1", "note": "[Example 578, (R)-tert-butyl 2-(4-bromo-5-(3-((3S,4R)-4-(3,4-difluorophenyl)-1-(2-methoxyethyl)pyrrolidin-3-yl)ureido)-1-phenyl-1H-pyrazol-3-yl)pyrrolidine-1-carboxylate]", "pIC50": "6.00 to 7.00"}
{"smiles": "COCCN1C[C@@H](NC(=O)Nc2c(Br)c(COC3CCN(C(=O)OC(C)(C)C)CC3)nn2-c2ccccc2)[C@H](c2ccc(F)c(F)c2)C1", "note": "[Example 579, tert-butyl 4-((4-bromo-5-(3-((3S,4R)-4-(3,4-difluorophenyl)-1-(2-methoxyethyl)pyrrolidin-3-yl)ureido)-1-phenyl-1H-pyrazol-3-yl)methoxy)piperidine-1-carboxylate]", "pIC50": "> 7.00"}
{"smiles": "COCCN1C[C@@H](NC(=O)Nc2cc(C3CCNCC3)nn2-c2ccccc2)[C@H](c2ccc(F)c(F)c2)C1", "note": "[Example 580, 1-((3S,4R)-4-(3,4-difluorophenyvl)-1-(2-methoxyethyl)pyrrolidin-3-yl)-3-(1-phenyl-3-(piperidin-4-yl)-1H-pyrazol-5-yl)urea dihydrochloride]", "pIC50": "6.00 to 7.00"}
{"smiles": "COCCN1C[C@@H](NC(=O)Nc2c(Cl)c(C3CCNCC3)nn2-c2ccccc2)[C@H](c2ccc(F)c(F)c2)C1", "note": "[Example 581, 1-(4-chloro-1-phenyl-3-(piperidin-4-yl)-1H-pyrazol-5-yl)-3-((3S,4R)-4-(3,4-difluorophenyl)-1-(2-methoxyethyl)pyrrolidin-3-yl)urea dihydrochloride]", "pIC50": "> 7.00"}
